Measurements from patent publication US20240041042A1, “1-(PYRIDYL)-5-AZINYLPYRAZOLE DERIVATIVES, AND THEIR USE FOR CONTROL OF UNDESIRED PLANT GROWTH” (Bayer Aktiengesellschaft, priority 2020, published 2024).
Where two headings read alike, the source gives them in different places.

What was measured:
Type in all cases: in vivo
[1] = system: Digitaria sanguinalis (DIGSA); assay: Pre-emergence herbicidal action against DIGSA
How it was run: (§1)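 Read-out is visual percent damage relative to untreated pots, with 100% meaning dead plants and 0% meaning no difference, assessed roughly three weeks after treatment. Compounds were applied pre-emergence to the covering soil at up to 320 g/ha.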

[2] = system: Echinochloa crus-galli (ECHCG); assay: Pre-emergence herbicidal action against ECHCG
How it was run: as §1

[3] = system: Digitaria sanguinalis (DIGSA); assay: Post-emergence herbicidal action against DIGSA; conditions: visual rating about 3 weeks after treatment
How it was run: (§2)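 Greenhouse plants sprayed at the one-leaf stage, 2–3 weeks after sowing, with WP or EC formulations plus 0.5% additive at 600 l/ha water. Activity rated visually after about 3 weeks versus untreated controls (100% = dead, 0% = like control), at 320 g/ha or lower.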

Lolium rigidum (LOLRI) = assay: Post-emergence herbicidal action against LOLRI
How it was run: as §2

[4] = system: Polygonum convolvulus (POLCO); assay: Post-emergence herbicidal action against POLCO
How it was run: as §2

[5] = system: Pharbitis purpurea (PHBPU); assay: Pre-emergence herbicidal action against PHBPU
How it was run: as §1

Oryza sativa (ORYSA) = conditions: crop plant compatibility
How it was run: (§3)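 Foliar application at the one-leaf stage: WP/EC formulation, 0.5% additive, 600 l/ha water. Greenhouse-grown in sandy loam. Endpoint is visual % injury relative to untreated controls at about 3 weeks.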

Zea mays (ZEAMX) = conditions: crop plant compatibility, 80 g/ha, effect vs untreated controls
How it was run: as §3

[6] = 80 g/ha, visual scoring after about 3 weeks vs untreated controls
[7] = 80 g/ha, effect in comparison to untreated controls

Structure (SMILES) | Post-emergence action against ORYSA in % (Oryza sativa (ORYSA); [7]) [%] | Post-emergence action against ORYSA in % (Oryza sativa (ORYSA); 20 g/ha, effect vs untreated controls) [%] | Post-emergence action against ORYSA in % (Oryza sativa (ORYSA); 320 g/ha, effect in comparison to untreated controls) [%] | Post-emergence action against ZEAMX in % (Zea mays (ZEAMX)) [%] | Pre-emergence action against DIGSA in % [1, 6] [%] | Pre-emergence action against DIGSA in % ([1]; dosage 320 g/ha) [%] | Pre-emergence action against ECHCG in % ([2]; dosage 320 g/ha) [%] | Post-emergence action against DIGSA in % ([3]; 320 g/ha) [%] | Post-emergence action against LOLRI in % (Lolium rigidum (LOLRI); dosage 320 g/ha) [%] | Post-emergence action against POLCO in % ([4]; dosage 80 g/ha) [%] | Post-emergence action against POLCO in % ([4]; dosage 320 g/ha) [%] | Pre-emergence action against ECHCG in % ([2]; dosage 80 g/ha) [%] | Pre-emergence action against PHBPU in % ([5]; dosage 80 g/ha) [%] | Pre-emergence action against PHBPU in % ([5]; dosage 320 g/ha) [%] | Post-emergence action against DIGSA in % ([3]; 80 g/ha) [%] | Post-emergence action against LOLRI in % (Lolium rigidum (LOLRI); dosage 80 g/ha) [%]
COC(=O)[C@@H](C)Oc1nn(-c2ncccc2F)c(-c2ccc(F)nc2)c1Br [Example I-05, Methyl (2R)-2-{[4-bromo-1-(3-fluoropyridin-2-yl)-5-(6-fluoropyridin-3-yl)-1H-pyrazol-3-yl]oxy}propanoate] | – | – | – | – | 100 | 100 | 100 | 90 | 90 | 90 | 90 | – | – | – | – | –
CCOC(=O)COc1nn(-c2nc(F)ccc2F)c(-c2cncc(F)c2)c1C1CC1 [Example I-149] | – | – | – | – | 90 | 100 | 100 | 90 | 90 | – | 80 | 90 | 80 | 90 | 80 | 80
C[C@@H](Oc1nn(-c2nc(F)ccc2F)c(-c2cncc(F)c2)c1C1CC1)C(=O)O [Example I-180] | – | – | – | – | 90 | 100 | 100 | 80 | 90 | 80 | 90 | 100 | 90 | 90 | 80 | 90
O=C(O)COc1nn(-c2nc(F)ccc2F)c(-c2cncc(F)c2)c1C1CC1 [Example I-148] | – | – | – | – | 90 | 100 | 100 | 90 | 80 | – | – | 90 | – | 90 | 80 | 80
CCOC(=O)COc1nn(-c2ncccc2F)c(-c2cncc(F)c2)c1C1CC1 [Example I-174] | – | – | – | – | 100 | 100 | 100 | 90 | 80 | – | 80 | 100 | 90 | 90 | 90 | 80
C[C@@H](Oc1nn(-c2ncccc2F)c(-c2ccc(F)nc2)c1Br)C(=O)O [Example I-18] | 10 | 0 | 20 | – | 100 | 100 | 90 | 90 | 80 | – | – | 90 | – | 90 | 90 | –
COC(=O)COc1nn(-c2ncccc2F)c(-c2cncc(F)c2)c1C1CC1 [Example I-167] | – | – | – | – | 100 | 100 | 100 | 90 | 80 | 80 | 80 | 100 | 90 | 90 | 90 | 80
O=C(O)COc1nn(-c2ncccc2F)c(-c2cncc(F)c2)c1C1CC1 [Example I-175] | 20 | – | – | – | 100 | 100 | 100 | 90 | 80 | 80 | 80 | 100 | 80 | 90 | 90 | 80
COC(=O)COc1nn(-c2nc(F)ccc2F)c(-c2cncc(F)c2)c1C1CC1 [Example I-164] | – | – | – | – | 90 | 100 | 100 | 90 | 90 | – | – | 90 | 80 | 90 | 80 | 80
COC(=O)[C@@H](C)Oc1nn(-c2nc(F)ccc2F)c(-c2cncc(F)c2)c1C1CC1 [Example I-171] | – | – | – | – | 80 | 100 | 100 | 80 | 90 | 80 | 90 | 100 | 80 | 90 | – | 80

The next lines start with results.

Post-emergence action against ORYSA in % (Oryza sativa (ORYSA); [7]) [%] | Post-emergence action against ORYSA in % (Oryza sativa (ORYSA); 20 g/ha, effect vs untreated controls) [%] | Post-emergence action against ORYSA in % (Oryza sativa (ORYSA); 320 g/ha, effect in comparison to untreated controls) [%] | Post-emergence action against ZEAMX in % (Zea mays (ZEAMX)) [%] | Structure (SMILES) | Pre-emergence action against DIGSA in % [1, 6] [%] | Pre-emergence action against DIGSA in % ([1]; dosage 320 g/ha) [%] | Pre-emergence action against ECHCG in % ([2]; dosage 320 g/ha) [%] | Post-emergence action against DIGSA in % ([3]; 320 g/ha) [%] | Post-emergence action against LOLRI in % (Lolium rigidum (LOLRI); dosage 320 g/ha) [%] | Post-emergence action against POLCO in % ([4]; dosage 80 g/ha) [%] | Post-emergence action against POLCO in % ([4]; dosage 320 g/ha) [%] | Pre-emergence action against ECHCG in % ([2]; dosage 80 g/ha) [%] | Pre-emergence action against PHBPU in % ([5]; dosage 80 g/ha) [%] | Pre-emergence action against PHBPU in % ([5]; dosage 320 g/ha) [%] | Post-emergence action against DIGSA in % ([3]; 80 g/ha) [%] | Post-emergence action against LOLRI in % (Lolium rigidum (LOLRI); dosage 80 g/ha) [%]
20 | – | – | – | COC(=O)C(C)COC(=O)[C@@H](C)Oc1nn(-c2ccccn2)c(-c2cncc(F)c2)c1Br (stereo partly drawn) [Example I-188] | – | – | 100 | – | 90 | 80 | 80 | 100 | 80 | 90 | – | 90
20 | – | – | – | COC(=O)[C@@H](C)COC(=O)COc1nn(-c2ccccn2)c(-c2cncc(F)c2)c1Br [Example I-194] | 90 | 100 | 100 | 90 | 90 | – | – | 80 | 90 | 90 | 80 | 80
20 | – | – | – | COC(=O)C(C)NC(=O)[C@@H](C)Oc1nn(-c2ccccn2)c(-c2cncc(F)c2)c1Br (stereo partly drawn) [Example I-190] | – | – | 100 | – | 90 | 80 | 80 | 90 | 90 | 90 | – | 90
0 | – | – | – | COC(=O)[C@H](C)COC(=O)COc1nn(-c2ccccn2)c(-c2cncc(F)c2)c1Cl [Example I-192] | 90 | 100 | 100 | 80 | 80 | – | 80 | 90 | 90 | 90 | 80 | –
0 | – | – | – | COC(=O)C(C)COC(=O)C(C)Oc1nn(-c2ccccn2)c(-c2ccc(F)nc2)c1Cl (stereo not drawn) [Example I-291] | 100 | 100 | 90 | – | 80 | 80 | 80 | – | – | 80 | – | 80
0 | – | – | 0 | COC(=O)[C@@H](C)Oc1nn(-c2ncccc2F)c(-c2ccc(F)nc2)c1I [Example I-341] | – | – | 100 | – | 90 | 80 | 80 | 80 | – | 90 | – | 90
